Here are results for 22 compounds from patent publication US12115152B2, “Pan-RAF kinase inhibitor and use thereof” (HEFEI INSTITUTES OF PHYSICAL SCIENCE, CHINESE ACADEMY OF …, priority 2019, dated 2024).

What all share (format): cell-based
Experiment [1] in a line: Effect on proliferation of cells, Cell Titer-Glo, 72 hours. As to conditions: Mus musculus, BaF3 cells. The procedure: The compounds of the present invention were tested for their effect on growth of cancer cells (Table 2), to further evaluate the compounds herein for their inhibitory effect on proliferation of cancer cells and their selectivity in inhibiting proliferation of cancer cells. […]
In the example, solutions of the test compound in DMSO at different concentrations (0.000508 μM, 0.00152 μM, 0.00457 μM, 0.0137 μM, 0.0411 μM, 0.123 μM, 0.370 μM, 1.11 μM, 3.33 μM, 10 μM) was added to the above cells respectively. The cells were incubated for 72 hours. The number of viable cells was detected with a Cell Titer-Glo (Promega, USA) Cell Viability Assay Kit by quantifying the ATP in viable cells. The values of GI50 (unit) of the compounds of the present invention against each of the test cells were determined.
On the technique in general: ATP-based viability assays read luminescence as a measure of living cells.

Experiment [2] concerns colorectal cancer cell COLO205 (expressing BRAF-V600E mutant kinase). Kind of experiment: Effect on proliferation of cancer cells, Cell Titer-Glo, 72 hours. As to conditions: Homo sapiens, COLO 205. The procedure:
(§1) The compounds of the present invention were tested for their effect on growth of cancer cells (Table 2), to further evaluate the compounds herein for their inhibitory effect on proliferation of cancer cells and their selectivity in inhibiting proliferation of cancer cells.
(§2) The cells were incubated for 72 hours. The number of viable cells was detected with a Cell Titer-Glo (Promega, USA) Cell Viability Assay Kit by quantifying the ATP in viable cells. The values of GI50 (unit) of the compounds of the present invention against each of the test cells were determined.

The test system of experiment [3] is melanoma cell A375 (expressing BRAF-V600E mutant kinase). The experiment is described as above. The note with it: Homo sapiens, A-375. As to the method: as §1, §2
In experiment [4] the test system is mouse BaF3-FL-BRAF-V600E (stably expressing full-length BRAF-V600E mutant kinase). Described as above. The procedure:
as §1, §2

Usually GI50 stands for the concentration at which growth is held to half of that of the control. High values mean lower sensitivity of the cells, low ones greater sensitivity of the cells. `Cc1ccc(NC(=O)c2cccc(C(F)(F)F)c2)cc1-n1cc(-c2cncc(OCCCN3CCOCC3)c2)cn1` [Example 48, N-(4-methyl-3-(4-(5-(3-morpholinopropoxy)pyrid-3-yl)-1H-pyrazol-1-yl)phenyl)-3-(trifluoromethyl)benzamide]: the GI50 in experiment [1] was 520 nM; in experiment [2], 32 nM; in experiment [3] it was 14 nM; in experiment [4], 4.1 nM.
Turning to `Cc1ccc(NC(=O)c2cccc(C(C)(C)C#N)c2)cc1-n1cc(-c2cnccc2OC2CCOC2)cn1` (stereo not shown) [Example 68, 3-(2-cyanoprop-2-yl)-N-(4-methyl-3-(4-(4-((tetrahydrofuran-3-yl)oxy)pyrid-3-yl)-1H-pyrazol-1-yl)phenyl)benzamide], the GI50 was 1800 nM in experiment [1], 66 nM in experiment [2], 27 nM in experiment [3] and 4.3 nM in experiment [4].
With `Cc1ccc(NC(=O)c2cccc(C(C)(C)C#N)c2)cc1-n1cc(-c2cncc(-c3ccc(N4CCN(C)CC4)cc3)c2)cn1` [Example 30, N-(4-methyl-3-(4-(5-(4-(4-methylpiperazin-1-yl)phenyl)pyrid-3-yl)-1H-pyrazol-1-yl)phenyl)-3-(2-cyanoprop-2-yl)benzamide], the GI50 is 52 nM in experiment [2], 47 nM in experiment [3] and 10 nM in experiment [4].
`Cc1ccc(NC(=O)c2cccc(C(C)(C)C#N)c2)cc1-n1cc(-c2cnc3[nH]ccc3c2)cn1` [Example 171, N-(3-(4-(1H-pyrrolo[2,3-b]pyrid-5-yl)-1H-pyrazol-1-yl)-4-methylphenyl)-3-(2-cyanoprop-2-yl)benzamide]: the GI50 in experiment [1] is 2600 nM; in experiment [2] it was 360 nM; in experiment [3], 110 nM.
Consider `Cc1ccc(NC(=O)c2ccc(CN3CCN(C)CC3)c(C(F)(F)F)c2)cc1-n1cc(-c2cnc3[nH]ccc3c2)cn1` [Example 168, N-(3-(4-(1H-pyrrolo[2,3-b]pyrid-5-yl)-1H-pyrazol-1-yl)-4-methylphenyl)-4-((4-methylpiperazin-1-yl)methyl)-3-(trifluoromethyl)benzamide], for which the GI50 in experiment [1] was determined as 3300 nM; in experiment [2] it was 28 nM; in experiment [3], 46 nM.
`Cc1ccc(NC(=O)c2cccc(C(C)(C)C#N)c2)cc1-n1cc(-c2cncc(-c3ccncc3)c2)cn1` [Example 5, N-(3-(4-([3,4′-bipyridyl]-5-yl)-1H-pyrazol-1-yl)-4-methylphenyl)-3-(2-cyanoprop-2-yl)benzamide]: the GI50 in experiment [1] was determined as 510 nM; in experiment [2], 17 nM; in experiment [3] it was 19 nM; in experiment [4], 1.9 nM.
With `Cc1ccc(NC(=O)c2cccc(C(C)(C)C#N)c2)cc1-n1cc(-c2cnccc2OC2COC2)cn1` [Example 79, 3-(2-cyanoprop-2-yl)-N-(4-methyl-3-(4-(4-(oxetan-3-yloxy)pyrid-3-yl)-1H-pyrazol-1-yl)phenyl)benzamide], the concentration for 50% growth inhibition (GI50) was 4800 nM in experiment [1], 57 nM in experiment [2], 61 nM in experiment [3] and less than 0.3 nM in experiment [4].
Consider `Cc1ccc(NC(=O)c2ccc3cccnc3c2)cc1-n1cc(-c2cnc3[nH]ccc3c2)cn1` [Example 182, N-(3-(4-(1H-pyrrolo[2,3-b]pyrid-5-yl)-1H-pyrazol-1-yl)-4-methylphenyl)quinoline-7-carboxamide], for which the GI50 is 2000 nM in experiment [1], 400 nM in experiment [2] and 500 nM in experiment [3].
Turning to `Cc1ccc(NC(=O)c2cccc(-c3ccsc3)c2)cc1-n1cc(-c2cnc3[nH]ccc3c2)cn1` [Example 183, N-(3-(4-(1H-pyrrolo[2,3-b]pyrid-5-yl)-1H-pyrazol-1-yl)-4-methylphenyl)-3-(thien-3-yl)benzamide], the GI50 in experiment [1] was found to be 3400 nM; in experiment [2] it was 150 nM; in experiment [3], 300 nM.
On to `Cc1ccc(NC(=O)c2cccc(C(F)(F)F)c2)cc1-n1cc(-c2cncc(OCC3CCOC3)c2)cn1` (stereo not shown) [Example 66, N-(4-methyl-3-(4-(5-((tetrahydrofuran-3-yl)methoxy)pyrid-3-yl)-1H-pyrazol-1-yl)phenyl)-3-(trifluoromethyl)benzamide], for which the GI50 in experiment [1] was determined as 3000 nM; in experiment [2], 230 nM; in experiment [3], 71 nM; in experiment [4] it was 18 nM.
In the case of `Cc1ccc(NC(=O)c2ccc(CN3CCN(C)CC3)c(C(F)(F)F)c2)cc1-n1cnc(-c2cnc3[nH]ccc3c2)c1` [Example 174, N-(3-(4-(1H-pyrrolo[2,3-b]pyrid-5-yl)-1H-imidazol-1-yl)-4-methylphenyl)-4-((4-methylpiperazin-1-yl)methyl)-3-(trifluoromethyl)benzamide], the GI50 in experiment [1] was found to be 960 nM; in experiment [2], 110 nM; in experiment [3] it was 160 nM.
On to `Cc1ccc(NC(=O)c2cccc(C(C)(C)C#N)c2)cc1-n1cnc(-c2cnc3[nH]ccc3c2)c1` [Example 176, N-(3-(4-(1H-pyrrolo[2,3-b]pyrid-5-yl)-1H-imidazol-1-yl)-4-methylphenyl)-3-(2-cyanoprop-2-yl)benzamide], for which the GI50 was 920 nM in experiment [1], 130 nM in experiment [2] and 89 nM in experiment [3].
In the case of `Cc1ccc(NC(=O)c2cccc(C(F)(F)F)c2)cc1-n1cc(-c2cncc(-c3ccc(N4CCN(C)CC4)cc3)c2)cn1` [Example 31, N-(4-methyl-3-(4-(5-(4-(4-methylpiperazin-1-yl)phenyl)pyrid-3-yl)-1H-pyrazol-1-yl)phenyl)-3-(trifluoromethyl)benzamide], the GI50 in experiment [2] was found to be 98 nM; in experiment [3], 100 nM.
For the compound `Cc1ccc(NC(=O)c2cc(C(C)(C)C)on2)cc1-n1cnc(-c2cnc3[nH]ccc3c2)c1` [Example 178, N-(3-(4-(1H-pyrrolo[2,3-b]pyrid-5-yl)-1H-imidazol-1-yl)-4-methylphenyl)-5-(tert-butyl)isoxazole-3-carboxamide], the GI50 was found to be 3700 nM in experiment [1], 300 nM in experiment [2] and 140 nM in experiment [3].
For the compound `Cc1ccc(NC(=O)c2cccc(C(C)(C)C#N)c2)cc1-n1cnc(-c2cncc(N3CCOCC3)c2)c1` [Example 109, 3-(2-cyanoprop-2-yl)-N-(4-methyl-3-(4-(5-morpholinopyrid-3-yl)-1H-imidazol-1-yl)phenyl)benzamide], the GI50 in experiment [1] turned out to be 3800 nM; in experiment [2] it was 110 nM; in experiment [3], 60 nM.
In the case of `Cc1ccc(NC(=O)c2cccc(C(F)(F)F)c2)cc1-n1cc(-c2cnc3[nH]ccc3c2)cn1` [Example 170, N-(3-(4-(1H-pyrrolo[2,3-b]pyrid-5-yl)-1H-pyrazol-1-yl)-4-methylphenyl)-3-(trifluoromethyl)benzamide], the GI50 in experiment [1] was 4800 nM; in experiment [2], 280 nM; in experiment [3], 270 nM.
Regarding `Cc1ccc(NC(=O)c2cccc(C(F)(F)F)c2)cc1-n1cnc(-c2cnc3[nH]ccc3c2)c1` [Example 177, N-(3-(4-(1H-pyrrolo[2,3-b]pyrid-5-yl)-1H-imidazol-1-yl)-4-methylphenyl)-3-(trifluoromethyl)benzamide], the GI50 in experiment [1] is 2700 nM; in experiment [2], 65 nM; in experiment [3], 120 nM.
On to `Cc1ccc(NC(=O)c2cccc(C(C)C#N)c2)cc1-n1cc(-c2cnc3[nH]ccc3c2)cn1` (stereo not shown) [Example 179, N-(3-(4-(1H-pyrrolo[2,3-b]pyrid-5-yl)-1H-pyrazol-1-yl)-4-methylphenyl)-3-(1-cyanoethyl)benzamide], for which the GI50 in experiment [1] stood at 3600 nM; in experiment [2], 140 nM; in experiment [3], 250 nM.
Take `Cc1ccc(NC(=O)c2cccc(C(F)(F)F)c2)cc1-n1cc(-c2cncc(-c3ccncc3)c2)cn1` [Example 13, N-(3-(4-([3,4′-bipyridyl]-5-yl)-1H-pyrazol-1-yl)-4-methylphenyl)-3-(trifluoromethyl)benzamide]: the GI50 in experiment [1] was 1300 nM; in experiment [2] it was 62 nM; in experiment [3], 81 nM.
Regarding `Cc1ccc(NC(=O)c2cccc(C(F)(F)F)c2)cc1-n1cc(-c2cncc(-c3cccnc3)c2)cn1` [Example 2, N-(3-(4-([3,3′-bipyridyl]-5-yl)-1H-pyrazol-1-yl)-4-methylphenyl)-3-(trifluoromethyl)benzamide], the values for the GI50 in experiment [1], in experiment [2] and in experiment [3] were 1700 nM, 48 nM and 36 nM, respectively.
As to `Cc1ccc(NC(=O)c2ccc(C)c(C(F)(F)F)c2)cc1-n1cnc(-c2cnc3[nH]ccc3c2)c1` [Example 175, N-(3-(4-(1H-pyrrolo[2,3-b]pyrid-5-yl)-1H-imidazol-1-yl)-4-methylphenyl)-4-methyl-3-(trifluoromethyl)benzamide], the GI50 was 1600 nM in experiment [1], 150 nM in experiment [2] and 100 nM in experiment [3].
For the compound `Cc1cn(-c2cc(C(=O)Nc3ccc(C)c(-n4cc(-c5cnc6[nH]ccc6c5)cn4)c3)cc(C(F)(F)F)c2)cn1` [Example 167, N-(3-(4-(1H-pyrrolo[2,3-b]pyrid-5-yl)-1H-pyrazol-1-yl)-4-methylphenyl)-3-(4-methyl-1H-imidazol-1-yl)-5-(trifluoromethyl)benzamide], the GI50 in experiment [1] is 3900 nM; in experiment [2], 670 nM; in experiment [3], 330 nM.
